Experimental data published in patent US20200316230A1, “DEVICES AND METHODS FOR RADIOPHARMACEUTICAL SYNTHESIS” (VANDERBILT UNIVERSITY, priority 2019, published 2020).

Test: microPET imaging of rat brain with [^18F]fallypride produced in the microfluidic chip
Type: in vivo
Details: microPET for about 2 hours, dose of about 300 μCi injected
Source text: To further verify the utility of the resulting [^18F]fallypride, we produced (using the integrated microfluidic chip) a dose of about 300 μCi with about 19.55 Ci/μmol (723.35 GBq/μmol) of specific activity and about 98.62% of radiochemical purity, and obtained PET data from a rat brain. The time point used to calculate the specific activity was at the end of production, namely the time when the purified [^18F]fallypride was retrieved from chip. The rat was brought to the imaging lab to habituate about 3 hours prior to imaging. Sbout 0.1 ml purified [^18F] fallypride was filtered through an about 0.45 μm filter (Millex-HV) and about 0.9 ml saline was added to formulate the PET probe used for rat injection. […] The accumulation and pharmacokinetics of [^18F]fallypride were as expected when evaluated in the rat brain.

accumulation and pharmacokinetics of [^18F]fallypride in the rat brain: as expected
SMILES: C=CCN1CCC[C@H]1CNC(=O)c1cc(CCC[18F])cc(OC)c1OC [[^18F]fallypride]
